Assay results as given in ChEMBL document CHEMBL5236629, “Antioxidant and Neuroprotective Effects of the First Tryptophyllin Found in Snake Venom (Bothrops moojeni)” (J Nat Prod, 2022).
Active and inactive are the calls of the source. The rule behind the calls is not given here. Where a SMILES comes first, the peptide text is derived from it.

Experiments:
SK-N-BE(2) [1] = experiment: Antioxidant acitivity against PMA-stimulated human SK-N-BE(2) cells assessed as reduction in PMA-stimulated ROS level at 50 to 100 uM incubated for 60 mins by DCFH-DA staining based flow cytometric analysis; type: functional, cell-based; conditions: dose 50-100 µM
N2a [2] = experiment: Antioxidant activity in arsenite-induced mouse Neuro2a cells assessed as increase in SOD level at 100 uM incubated for 3 hrs by Western blot analysis; type: functional, cell-based
SK-N-BE(2) [3] = experiment: Antioxidant acitivity against PMA-stimulated human SK-N-BE(2) cells assessed as reduction in PMA-stimulated RNS level at 50 uM incubated for 60 mins by DCFH-DA staining based flow cytometric analysis; type: functional, cell-based
[4] = Antioxidant activity assessed as trolox equivalent of AAPH radical scavenging activity preincubated for 15 mins followed by 10 sec incubation under shaking condition and measured every minute for 2 hrs by ORAC fluorescence based microplate reader analysis; type: functional; conditions: time 8110.0 sec
N2a [5] = experiment: Antioxidant activity in arsenite-induced mouse Neuro2a cells assessed as reduction in Nrf2 protein level at 100 uM incubated for 3 hrs by Western blot analysis; type: functional, cell-based
[6] = Hemolytic activity in human red blood cell assessed as cell membrane disruption at 12.5 to 400 ug/ml incubated for 1 hrs by microplate reader analysis; type: toxicity, cell-based; conditions: erythrocyte, dose 12.5-400 µg/ml
[7] = Antioxidant activity assessed as protection against AAPH-induced DNA degradation in to linear form incubated for 1 hrs by SYBR dye based electrophoresis; type: functional
[8] = Cytotoxicity against human SK-N-BE(2) cells assessed as reduction in cell viability incubated for 24 hrs by MTT assay; type: toxicity, cell-based
[9] = Antioxidant activity assessed as trolox equivalent of ABTS radical scavenging activity measured for 6 mins; type: functional
Erythrocyte = experiment: Protection against AAPH-induced hemolysis in human RBC at 25 to 400 ug/ml preincubated with compound for 20 mins followed bu AAPH addition and measured after 3 hrs by spectrophotometric analysis; type: functional, cell-based; conditions: dose 25-400 µg/ml, time 200.0 min
[10] = Protection against AAPH-induced hemolysis in human RBC at 50 to 100 ug/ml preincubated with compound for 20 mins followed bu AAPH addition and measured after 3 hrs by spectrophotometric analysis relative to control; type: functional, Erythrocyte; conditions: dose 50-100 µg/ml; time 200 min; 3.333 h; at 50 to 100 µg/mL

In the case of `CC[C@H](C)[C@H](NC(=O)[C@H](Cc1c[nH]c2ccccc12)NC(=O)[C@@H]1CCCN1C(=O)[C@@H](N)Cc1ccccc1)C(=O)N[C@H](C(=O)N[C@@H](CO)C(N)=O)[C@@H](C)CC` (H-FPWIIS-NH2), the Activity (SK-N-BE(2) [1]) is reported as “Active”, the Activity (N2a [2]) is reported as “inactive” and the Activity (SK-N-BE(2) [3]) is reported as “Active”. The Activity [4] was 674 µM/g, the Activity (N2a [5]) was “Active” and the Activity [6] was “Non-Toxic”. The Activity [7] was “Active”, the CC50 at 24 h [8] was 1730 µM and the Activity [9] was 796 µM/g. For the same molecule, the Activity (Erythrocyte) was “Active” and the Activity [10] was greater than 75%.
